Test results taken from the NIST ThermoML archive (doi:10.1021/je1000796).

Key:
[1] = mn = molality of the nth substance listed, in mol/kg; conditions: 101 kPa, Liquid, m2 = 0; for viscosity: Capillary tube (Ostwald / Ubbelohde) method
[2] = 101 kPa, Liquid; for viscosity: Capillary tube (Ostwald / Ubbelohde) method

CCO [ethanol] + COC(=O)[C@H](c1ccccc1Cl)N1CCc2sccc2C1.O=S(=O)(O)O
[1]
Conditions | mass density [kg/m3] | viscosity [mPa·s]
278.15 K | 800.5 | 1.629
283.15 K | 797.8 | 1.474
288.15 K | 793.9 | 1.333
293.15 K | 790 | 1.21
298.15 K | 785.7 | 1.099
303.15 K | 780.9 | 0.9971
308.15 K | 778 | 0.9083
313.15 K | 773.3 | 0.828

CCO [ethanol]
[2]
Conditions | mass density [kg/m3] | viscosity [mPa·s]
278.15 K | 800.5 | 1.629
283.15 K | 797.8 | 1.474
288.15 K | 793.9 | 1.333
293.15 K | 790 | 1.21
298.15 K | 785.7 | 1.099
303.15 K | 780.9 | 0.9971
308.15 K | 778 | 0.9083
313.15 K | 773.3 | 0.828

CO [methanol]
[2]
Conditions | mass density [kg/m3] | viscosity [mPa·s]
278.15 K | 803 | 0.7418
283.15 K | 798.9 | 0.689
288.15 K | 795.2 | 0.641
293.15 K | 792.1 | 0.599
298.15 K | 787.9 | 0.5585
303.15 K | 783.7 | 0.5199
308.15 K | 779.5 | 0.4857
313.15 K | 775.2 | 0.4559

CO [methanol] + COC(=O)[C@H](c1ccccc1Cl)N1CCc2sccc2C1.O=S(=O)(O)O
[1]
Conditions | mass density [kg/m3] | viscosity [mPa·s]
278.15 K | 803 | 0.7418
283.15 K | 798.9 | 0.689
288.15 K | 795.2 | 0.641
293.15 K | 792.1 | 0.599
298.15 K | 787.9 | 0.5585
303.15 K | 783.7 | 0.5199
308.15 K | 779.5 | 0.4857
313.15 K | 775.2 | 0.4559
